Source: PMC5896373 (Molecular Pharmacology, 2018)

What was measured:
[1] = biological target: T1, chimeric P2X7/1 receptor 279–285 (left flipper) (Homo sapiens, UniProt Q99572, DEL279-281/I21V/M24R/N16P/N25R/N284E/Q22R/R20V/S23N/T19I/T282Y/T283E/V285K/Y26L); parameters: method as in Allsopp et al., 2017; conditions: chimera 279–285; ref Allsopp et al., 2017; cited from earlier work
T1 construct: expressed in transfected cells; host or cells: Xenopus laevis oocytes (cRNA injection)
T1 sequence (Q99572 with tags, fused parts or gaps N16P/T19I/R20V/I21V/Q22R/S23N/M24R/N25R/Y26L/DEL279-281/T282Y/T283E/N284E/V285K): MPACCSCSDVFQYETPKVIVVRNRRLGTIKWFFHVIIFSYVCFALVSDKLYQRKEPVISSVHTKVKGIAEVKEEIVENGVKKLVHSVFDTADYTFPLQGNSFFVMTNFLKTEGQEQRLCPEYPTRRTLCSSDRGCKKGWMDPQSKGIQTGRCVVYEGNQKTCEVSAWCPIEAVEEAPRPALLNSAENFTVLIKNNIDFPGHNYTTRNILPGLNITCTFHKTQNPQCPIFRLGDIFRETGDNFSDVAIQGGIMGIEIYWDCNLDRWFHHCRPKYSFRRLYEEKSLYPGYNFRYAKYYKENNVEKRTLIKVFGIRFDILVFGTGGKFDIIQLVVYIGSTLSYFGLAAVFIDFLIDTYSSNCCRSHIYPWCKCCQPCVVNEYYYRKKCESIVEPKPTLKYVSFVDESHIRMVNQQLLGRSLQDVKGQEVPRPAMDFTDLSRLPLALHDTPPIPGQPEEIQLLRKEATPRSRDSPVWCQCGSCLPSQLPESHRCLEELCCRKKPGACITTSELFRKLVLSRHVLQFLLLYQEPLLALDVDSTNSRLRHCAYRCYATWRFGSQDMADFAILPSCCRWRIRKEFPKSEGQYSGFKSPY

P2X7-2Nβ 73–79 deletion = biological target: T2, P2X7-2Nβ 73–79 deletion (Homo sapiens, UniProt Q99572, DEL73-79/I21V/M24R/N16P/N25R/Q22R/R20V/S23N/T19I/Y26L); parameters: method as in Allsopp et al., 2017; conditions: ref Allsopp et al., 2017; cited from earlier work
T2 construct: expressed in transfected cells; host or cells: Xenopus laevis oocytes (cRNA injection)
T2 sequence (Q99572 with tags, fused parts or gaps N16P/T19I/R20V/I21V/Q22R/S23N/M24R/N25R/Y26L/DEL73-79): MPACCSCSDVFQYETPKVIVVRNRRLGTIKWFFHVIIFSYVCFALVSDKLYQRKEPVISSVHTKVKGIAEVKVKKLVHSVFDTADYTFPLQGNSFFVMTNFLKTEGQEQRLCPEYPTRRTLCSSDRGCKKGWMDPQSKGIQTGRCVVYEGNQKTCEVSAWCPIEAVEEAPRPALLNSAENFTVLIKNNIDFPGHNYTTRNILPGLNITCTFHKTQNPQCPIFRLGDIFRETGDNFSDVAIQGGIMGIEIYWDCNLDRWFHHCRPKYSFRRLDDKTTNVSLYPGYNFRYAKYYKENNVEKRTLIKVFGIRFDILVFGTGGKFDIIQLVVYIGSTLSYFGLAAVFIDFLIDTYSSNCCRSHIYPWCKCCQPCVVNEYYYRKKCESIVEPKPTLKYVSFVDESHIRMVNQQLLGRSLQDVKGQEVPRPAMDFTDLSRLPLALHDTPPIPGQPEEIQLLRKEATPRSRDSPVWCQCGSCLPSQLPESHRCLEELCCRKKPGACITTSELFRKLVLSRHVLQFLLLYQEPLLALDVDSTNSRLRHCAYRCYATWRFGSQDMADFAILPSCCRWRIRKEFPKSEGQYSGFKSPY

P2X7R point mutant L97P = biological target: T3, P2X7R point mutant L97P (Homo sapiens, UniProt Q99572, I21V/L97P/M24R/N16P/N25R/Q22R/R20V/S23N/T19I/Y26L); assay: cell-based
T3 construct: expressed in transfected cells; host or cells: Xenopus laevis oocytes (cRNA injection)
T3 sequence (Q99572 whole entry N16P/T19I/R20V/I21V/Q22R/S23N/M24R/N25R/Y26L/L97P): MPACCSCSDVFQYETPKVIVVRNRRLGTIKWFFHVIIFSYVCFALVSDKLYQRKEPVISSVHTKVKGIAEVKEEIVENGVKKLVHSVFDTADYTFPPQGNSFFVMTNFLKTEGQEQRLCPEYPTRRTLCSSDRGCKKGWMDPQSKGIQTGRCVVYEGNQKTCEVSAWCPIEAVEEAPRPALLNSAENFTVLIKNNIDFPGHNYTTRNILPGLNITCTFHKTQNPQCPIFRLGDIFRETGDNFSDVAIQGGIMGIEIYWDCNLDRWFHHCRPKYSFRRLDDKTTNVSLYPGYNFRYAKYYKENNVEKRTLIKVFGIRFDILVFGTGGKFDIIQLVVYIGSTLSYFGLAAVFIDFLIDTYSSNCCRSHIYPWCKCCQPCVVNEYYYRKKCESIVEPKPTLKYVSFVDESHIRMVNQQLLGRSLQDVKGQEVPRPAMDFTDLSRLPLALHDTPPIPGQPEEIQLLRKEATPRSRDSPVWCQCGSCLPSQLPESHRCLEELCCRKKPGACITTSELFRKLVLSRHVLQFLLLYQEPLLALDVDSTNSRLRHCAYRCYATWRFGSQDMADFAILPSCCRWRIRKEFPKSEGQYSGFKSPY
Experimental: (§1) The production of the correct mutations and absence of coding errors was determined by DNA sequencing (Automated ABI Sequencing Service, University of Leicester, UK). cRNA was generated for the mutants and 50 nl (50 ng) was injected into manually defoliculated stage V Xenopus laevis oocytes using an Inject+Matic microinjector (J.A. Gabay, Inject+Matic, Geneva, Switzerland). Injected oocytes were stored at 16°C in ND96 buffer [in millimolar concentrations, NaCl 96, KCl 2, CaCl2 1.8, MgCl2 1, sodium pyruvate 5, and HEPES 5 (pH 7.6) supplemented with 50 μg/ml gentamycin and 50 μg/ml tetracycline]. Three to seven days postinjection two-electrode voltage clamp recordings were made from oocytes bathed in divalent-free ND96 buffer (in millimolar concentrations, NaCl 96, KCl 2, sodium pyruvate 5, HEPES 5, and 0.1 flufenamic acid, pH 7.6). Oocytes were voltage clamped at a holding potential of −60 mV with a GeneClamp500B amplifier (Molecular Devices).
(§2) Inhibition by the antagonists was expressed as the percentage of the peak current amplitude of an EC90 concentration of ATP recorded before the application of antagonist (ATP gave reproducible responses to ATP in the absence of antagonist). Inhibition curves were fitted with the Hill equation (variable slope) using GraphPad Prism 6 (GraphPad Software, San Diego, CA). […]

[2] = biological target: T4, chimeric P2X7R with left flipper 280–284 of P2X4 (Homo sapiens, UniProt Q99572, D280T/I21V/K281R/M24R/N16P/N25R/N284E/Q22R/R20V/S23N/T19I/T282D/T283V/Y26L); conditions: chimera 280–284 of P2X4
T4 sequence (Q99572 1-595 N16P/T19I/R20V/I21V/Q22R/S23N/M24R/N25R/Y26L/D280T/K281R/T282D/T283V/N284E): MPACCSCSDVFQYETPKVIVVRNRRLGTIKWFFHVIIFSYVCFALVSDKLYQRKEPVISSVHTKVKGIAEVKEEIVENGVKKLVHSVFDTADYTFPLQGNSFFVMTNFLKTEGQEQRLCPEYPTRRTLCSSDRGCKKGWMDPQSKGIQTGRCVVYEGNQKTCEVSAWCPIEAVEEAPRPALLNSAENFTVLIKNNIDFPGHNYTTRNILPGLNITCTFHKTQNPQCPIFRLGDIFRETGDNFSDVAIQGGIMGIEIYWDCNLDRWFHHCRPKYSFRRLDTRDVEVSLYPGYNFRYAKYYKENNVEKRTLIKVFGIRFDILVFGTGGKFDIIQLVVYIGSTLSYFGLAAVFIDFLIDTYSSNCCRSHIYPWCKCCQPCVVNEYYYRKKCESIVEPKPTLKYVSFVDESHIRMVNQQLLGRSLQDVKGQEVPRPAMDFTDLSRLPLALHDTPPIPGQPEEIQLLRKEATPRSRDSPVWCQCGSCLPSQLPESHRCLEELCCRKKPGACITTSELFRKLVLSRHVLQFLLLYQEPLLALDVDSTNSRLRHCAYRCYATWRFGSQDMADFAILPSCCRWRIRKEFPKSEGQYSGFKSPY
Experimental: as §1
(§3) Inhibition by the antagonists was expressed as the percentage of the peak current amplitude of an EC90 concentration of ATP recorded before the application of antagonist (ATP gave reproducible responses to ATP in the absence of antagonist). Inhibition curves were fitted with the Hill equation (variable slope) using GraphPad Prism 6 (GraphPad Software, San Diego, CA). […] Individual concentration-response curves were generated for individual experiments, and statistical analysis was carried out on the data generated. […] Data are shown as mean ± S.E.M. In all cases n ≥ 3 for all data points.

[3] = system: chimeric P2X7/1 receptor 112–118; assay: cell-based; format: cell-based, human; conditions: chimera 112–118
Experimental: Additional point mutants were made using the QuikChange mutagenesis kit (Stratagene California, La Jolla, CA). The production of the correct mutations and absence of coding errors was determined by DNA sequencing (Automated ABI Sequencing Service, University of Leicester, UK). cRNA was generated for the mutants and 50 nl (50 ng) was injected into manually defoliculated stage V Xenopus laevis oocytes using an Inject+Matic microinjector (J.A. Gabay, Inject+Matic, Geneva, Switzerland). Injected oocytes were stored at 16°C in ND96 buffer [in millimolar concentrations, NaCl 96, KCl 2, CaCl2 1.8, MgCl2 1, sodium pyruvate 5, and HEPES 5 (pH 7.6) supplemented with 50 μg/ml gentamycin and 50 μg/ml tetracycline]. Three to seven days postinjection two-electrode voltage clamp recordings were made from oocytes bathed in divalent-free ND96 buffer (in millimolar concentrations, NaCl 96, KCl 2, sodium pyruvate 5, HEPES 5, and 0.1 flufenamic acid, pH 7.6). Oocytes were voltage clamped at a holding potential of −60 mV with a GeneClamp500B amplifier (Molecular Devices).
as §3

[4] = system: P2X7R left flipper point mutant N284A; assay: Two-electrode voltage clamp of ATP-evoked currents in Xenopus oocytes; format: cell-based, human
Experimental: as §1, §2

[5] = system: P2X7R left flipper point mutant K281A; assay: as above; format: cell-based, human
Experimental: Injected oocytes were stored at 16°C in ND96 buffer [in millimolar concentrations, NaCl 96, KCl 2, CaCl2 1.8, MgCl2 1, sodium pyruvate 5, and HEPES 5 (pH 7.6) supplemented with 50 μg/ml gentamycin and 50 μg/ml tetracycline]. Three to seven days postinjection two-electrode voltage clamp recordings were made from oocytes bathed in divalent-free ND96 buffer (in millimolar concentrations, NaCl 96, KCl 2, sodium pyruvate 5, HEPES 5, and 0.1 flufenamic acid, pH 7.6). Oocytes were voltage clamped at a holding potential of −60 mV with a GeneClamp500B amplifier (Molecular Devices).
Electrophysiological traces were digitized with a Digidata 1322A and collected using pCLAMP 8.2 software (Molecular Devices, Menlo Park, CA). An EC90 concentration of ATP was used to test antagonist sensitivity for the P2X7-2Nβ and mutant receptors [ATP sensitivity of the chimeras and mutants are reported in [Allsopp et al. (2017)]] to standardize for any changes in ATP sensitivity.
Inhibition by the antagonists was expressed as the percentage of the peak current amplitude of an EC90 concentration of ATP recorded before the application of antagonist (ATP gave reproducible responses to ATP in the absence of antagonist). […] Any significant differences from the P2X7-2Nβ control were calculated by one-way analysis of variance, followed by Dunnett’s test (using GraphPad Prism 6). […]

SMILES | effect on antagonist sensitivity [1] | fold decrease in antagonist sensitivity (P2X7-2Nβ 73–79 deletion) [fold] | IC50 (P2X7R point mutant L97P) [µM] | fold decrease in antagonist sensitivity relative to P2X7-2Nβ [2] [fold] | fold decrease in antagonist sensitivity relative to P2X7-2Nβ [3] [fold] | effect on antagonist sensitivity relative to P2X7-2Nβ [4] | fold decrease in antagonist sensitivity relative to P2X7-2Nβ [5] [fold]
Cl.Cl.O=C(CC12CC3CC(CC(C3)C1)C2)Nc1cccc2nc(NCCNCCO)ccc12 [AZ10606120, N-[2-[[2-[(2-hydroxyethyl)amino]ethyl]amino]-5-quinolinyl]-2-tricyclo[3.3.1.13,7]dec-1-ylacetamide dihydrochloride] | no effect | 40 |  |  |  |  | 
COc1ccc(CC(=O)NC(N=C(NC#N)Nc2cccc3ncccc23)C(C)(C)C)cc1OC (stereo not shown) [A740003, N-[1-[[(cyanoamino)(5-quinolinylamino)methylene]amino]-2,2-dimethylpropyl]-3,4-dimethoxybenzeneacetamide] |  |  | 0.398 | ~10 | ~3 | no effect | ~4
